Data on 11 molecules can be found in DBAASP.

What all share (assay): ≥ marks a high value that may be exact or a test limit, other limits are often not marked, values filed in µg/mL are converted to µM
Assay [1] deals with Escherichia coli ATCC 25726.
The subject of assay [2] is Staphylococcus aureus ATCC 25923.
Assay [3] relates to Candida albicans ATCC 2002.
In assay [4] the test system is Escherichia coli ATCC 25922.
Assay [5] relates to Pseudomonas aeruginosa CMCCB 10104.
Assay [6] deals with Bacillus subtilis KCTC 3068.
In assay [7] the test system is Escherichia coli KCTC 1682.
In assay [8] the test system is Pseudomonas aeruginosa KCTC 1637.
The subject of assay [9] is Salmonella typhimurium KCTC 1926.
The test system of assay [10] is Staphylococcus aureus KCTC 1621.
Assay [11] deals with Staphylococcus epidermidis KCTC 1917.
Assay [12] concerns Bacillus subtilis ATCC 6633.
The test system of assay [13] is Enterococcus faecalis ATCC 29212.
The next assay relates to Escherichia coli UB1005.
For assay [14], the system named is Pseudomonas aeruginosa ATCC 27853.
The test system of assay [15] is Staphylococcus epidermidis C621.

In brackets after ≈: the same amount, converted by molar mass.

By MIC is commonly meant the smallest concentration in the dilution series that meets the test's criterion for growth inhibition. A high value points to a need for much substance. As to `CC[C@H](C)[C@H](NC(=O)[C@@H]1CCCN1C(=O)[C@H](CC(C)C)NC(=O)[C@@H](N)Cc1ccccc1)C(=O)N[C@@H](CC(C)C)C(=O)NCC(=O)N[C@@H](CC(N)=O)C(=O)N[C@@H](CC(C)C)C(=O)N[C@@H](CC(C)C)C(=O)N[C@@H](CO)C(=O)NCC(=O)N[C@@H](CC(C)C)C(=O)N[C@@H](CC(C)C)C(N)=O` [FLPILGNLLSGLL], the values for the MIC in assay [1] and in assay [2] were at least 100 µM and 50 µM (≈ 68.4 µg/mL), respectively.
On to `CC[C@H](C)[C@H](NC(=O)CNC(=O)[C@H](CO)NC(=O)[C@H](CC(C)C)NC(=O)[C@@H](NC(=O)CN)[C@@H](C)CC)C(=O)N[C@@H](CC(C)C)C(=O)NCC(=O)N[C@H](C(=O)NCC(=O)N[C@@H](CCCCN)C(=O)N[C@@H](CCSC)C(=O)N[C@@H](CC(C)C)C(=O)N[C@H](C(=O)N[C@H]1CSSC[C@@H](C(=O)O)NC(=O)[C@H](CC(C)C)NC(=O)CNC(=O)[C@H](CO)NC(=O)[C@H](CC(C)C)NC(=O)CNC1=O)C(C)C)C(C)C` [GILSGILGVGKMLVCGLSGLC], for which the minimum inhibitory concentration (MIC) in assay [3] was determined as 4.32 µM (≈ 8.59 µg/mL); in assay [4] it was 4.32 µM (≈ 8.59 µg/mL); in assay [5], 8.64 µM (≈ 17.2 µg/mL); in [2] it was 4.32 µM (≈ 8.59 µg/mL).
On to `CC[C@H](C)[C@H](NC(=O)[C@H](CC(C)C)NC(=O)[C@@H](NC(=O)[C@H](Cc1ccccc1)NC(=O)[C@H](CC(C)C)NC(=O)CN)[C@@H](C)O)C(=O)N[C@@H](CCCCN)C(=O)NCC(=O)N[C@@H](C)C(=O)N[C@@H](Cc1ccc(O)cc1)C(=O)N[C@@H](CCCCN)C(=O)N[C@@H](CC(N)=O)C(=O)N[C@@H](CC(=O)O)C(=O)N[C@@H](C)C(=O)N1CCC[C@H]1C(=O)N[C@H](C(=O)N[C@H](C(=O)N[C@@H](C)C(=O)N[C@@H](CS)C(=O)N[C@@H](CC(N)=O)C(=O)O)C(C)C)[C@@H](C)O` [GLFTLIKGAYKNDAPTVACN], for which the MIC in assay [3] came to 11.6 µM (≈ 24.3 µg/mL); in [4], 11.6 µM (≈ 24.3 µg/mL); in assay [5], 23.2 µM (≈ 48.6 µg/mL); in assay [2], 5.82 µM (≈ 12.2 µg/mL).
Turning to `CC[C@H](C)[C@H](NC(=O)[C@H](CC(C)C)NC(=O)[C@H](CCC(N)=O)NC(=O)[C@@H](NC(=O)[C@H](C)NC(=O)CNC(=O)[C@H](CCCCN)NC(=O)[C@@H](NC(=O)[C@H](CC(C)C)NC(=O)[C@@H](NC(=O)[C@H](Cc1ccccc1)NC(=O)[C@@H](NC(=O)CN)C(C)C)[C@@H](C)O)[C@@H](C)CC)[C@@H](C)O)C(=O)NCC(=O)N[C@@H](CCCCN)C(=O)N[C@H](C(=O)N[C@@H](CC(C)C)C(=O)NCC(=O)N[C@@H](CCCCN)C(=O)N[C@@H](CCC(=O)O)C(=O)N[C@@H](CC(C)C)C(=O)NCC(=O)N[C@@H](CCCCN)C(=O)N[C@H](C(=O)NCC(=O)N[C@@H](CC(C)C)C(=O)N[C@@H](CCC(=O)O)C(=O)N[C@@H](CC(C)C)C(=O)N[C@@H](CCSC)C(=O)N[C@@H](C)C(=O)N[C@H]1CSSC[C@@H](C(=O)O)NC(=O)[C@H](CCC(N)=O)NC(=O)[C@H](CCC(=O)O)NC(=O)[C@H]([C@@H](C)O)NC(=O)[C@H]([C@@H](C)CC)NC(=O)[C@H](CCCCN)NC1=O)[C@@H](C)O)[C@@H](C)O` [GVFTLIKGATQLIGKTLGKELGKTGLELMACKITEQC], the MIC in assay [3], in [4], in assay [5] and in assay [2] was 0.924 µM (≈ 3.6 µg/mL) each time.
With `CC[C@H](C)[C@H](NC(=O)[C@H](CCC(=O)O)NC(=O)[C@H](CO)NC(=O)[C@@H](NC(=O)[C@H](CC(C)C)NC(=O)[C@H](C)NC(=O)[C@H](CCC(N)=O)NC(=O)CNC(=O)[C@H](Cc1ccccc1)NC(=O)[C@H](CCCCN)NC(=O)[C@H](CCCCN)NC(=O)[C@H](C)NC(=O)[C@H](CO)NC(=O)[C@H](Cc1cnc[nH]1)NC(=O)[C@H](CC(C)C)NC(=O)[C@H](Cc1ccccc1)NC(=O)[C@H](CCCCN)NC(=O)CNC(=O)[C@@H](NC(=O)CN)C(C)C)C(C)C)C(=O)N[C@@H](CCSC)C(=O)N[C@@H](CCCCN)C(=O)N[C@@H](CO)C(=O)O` [GVGKFLHSAKKFGQALVSEIMKS], the minimal inhibitory concentration (MIC) in [1] was at least 50 µM; in [2] it was above 100 µM.
As for `CC[C@H](C)[C@H](N)C(=O)N[C@@H](CC(C)C)C(=O)N[C@@H](CCCCN)C(=O)N[C@@H](Cc1c[nH]c2ccccc12)C(=O)N[C@@H](CCCCN)C(=O)N[C@@H](Cc1c[nH]c2ccccc12)C(=O)N[C@@H](CCCCN)C(=O)N[C@@H](Cc1c[nH]c2ccccc12)C(=O)N[C@@H](Cc1c[nH]c2ccccc12)C(=O)N1CCC[C@H]1C(=O)N[C@@H](Cc1c[nH]c2ccccc12)C(=O)N[C@@H](CCCN=C(N)N)C(=O)N[C@@H](CCCN=C(N)N)C(N)=O` [ILKWKWKWWPWRR], the minimum inhibitory concentration (MIC) in [6], in assay [7], in [8], in [9], in assay [10] and in assay [11] was 5.08 µM (≈ 10 µg/mL) in each case.
For `CC[C@H](C)[C@H](N)C(=O)N[C@@H](CC(C)C)C(=O)N[C@@H](CCCCN)C(=O)N[C@@H](Cc1c[nH]c2ccccc12)C(=O)N[C@@H](CCCCN)C(=O)N[C@@H](Cc1c[nH]c2ccccc12)C(=O)N1CCC[C@H]1C(=O)N[C@@H](Cc1c[nH]c2ccccc12)C(=O)N[C@@H](Cc1c[nH]c2ccccc12)C(=O)N[C@@H](CCCCN)C(=O)N[C@@H](Cc1c[nH]c2ccccc12)C(=O)N[C@@H](CCCN=C(N)N)C(=O)N[C@@H](CCCN=C(N)N)C(N)=O` [ILKWKWPWWKWRR], the MIC came out at 2.54 µM (≈ 5 µg/mL) in assay [6]; 5.08 µM (≈ 10 µg/mL) in assay [7]; 5.08 µM (≈ 10 µg/mL) in assay [8]; 5.08 µM (≈ 10 µg/mL) in assay [9]; 2.54 µM (≈ 5 µg/mL) in assay [10]; 5.08 µM (≈ 10 µg/mL) in [11].
Turning to `CC[C@H](C)[C@H](N)C(=O)N[C@@H](CC(N)=O)C(=O)N1CCC[C@H]1C(=O)N[C@@H](Cc1ccccc1)C(=O)N[C@H](C(=O)N[C@@H](C)C(=O)NCC(=O)N[C@H](C(=O)N[C@@H](C)C(=O)N[C@@H](C)C(=O)N[C@@H](CCC(=O)O)C(=O)N[C@@H](CCSC)C(=O)N[C@@H](CCSC)C(=O)N[C@@H](CCC(N)=O)C(=O)N[C@@H](Cc1cnc[nH]1)C(=O)N[C@H](C(=O)N[C@@H](Cc1ccc(O)cc1)C(=O)N[C@H]1CSSC[C@@H](C(=O)O)NC(=O)[C@H](CCCCN)NC(=O)[C@H](CCCCN)NC(=O)[C@H](CO)NC(=O)[C@H](C)NC(=O)[C@H](C)NC1=O)C(C)C)C(C)C)C(C)C` [INPFVAGVAAEMMQHVYCAASKKC], the minimal inhibitory concentration (MIC) in assay [3], in assay [4], in [5] and in assay [2] was 3.35 µM (≈ 8.59 µg/mL) in each case.
For `CC[C@H](C)[C@H](NC(=O)[C@H](CCCCN)NC(=O)[C@H](CCCCN)NC(=O)[C@H](Cc1ccccc1)NC(=O)[C@H](CC(C)C)NC(=O)[C@H](CCCCN)NC(=O)[C@H](C)NC(=O)[C@@H](N)CCCCN)C(=O)N1CCC[C@H]1C(=O)N[C@@H](CCCCN)C(=O)N[C@@H](Cc1ccccc1)C(=O)N[C@@H](CC(C)C)C(=O)N[C@@H](Cc1cnc[nH]1)C(=O)N[C@@H](CC(C)C)C(=O)N[C@@H](Cc1c[nH]c2ccccc12)C(=O)N[C@@H](CCCCN)C(=O)N[C@@H](CCCCN)C(=O)N[C@@H](Cc1ccccc1)C(N)=O` [KAKLFKKIPKFLHLWKKF], the minimal inhibitory concentration (MIC) came to 2 µM (≈ 4.6 µg/mL) in assay [6]; 2 µM (≈ 4.6 µg/mL) in assay [7]; 1 µM (≈ 2.3 µg/mL) in [8]; 1 µM (≈ 2.3 µg/mL) in assay [9]; 2 µM (≈ 4.6 µg/mL) in assay [10]; 1 µM (≈ 2.3 µg/mL) in assay [11].
For the molecule `C[C@H](NC(=O)[C@H](C)NC(=O)[C@H](Cc1ccccc1)NC(=O)[C@H](C)NC(=O)[C@H](C)NC(=O)[C@H](Cc1ccccc1)NC(=O)[C@H](C)NC(=O)[C@H](C)NC(=O)[C@H](Cc1ccccc1)NC(=O)[C@H](C)NC(=O)[C@H](C)NC(=O)[C@H](CCCCN)NC(=O)[C@H](CCCCN)NC(=O)[C@H](CCCCN)NC(=O)[C@H](CCCCN)NC(=O)[C@H](CCCCN)NC(=O)[C@@H](N)CCCCN)C(N)=O` [KKKKKKAAFAAFAAFAA], the minimum inhibitory concentration (MIC) in [12] was 16 µM (≈ 28.7 µg/mL); in [13], above 32 µM; in assay [4] it was 16 µM (≈ 28.7 µg/mL); in the assay with Escherichia coli UB1005, 2 µM (≈ 3.59 µg/mL); in assay [14] it was 16 µM (≈ 28.7 µg/mL); in [2], above 32 µM. Also, the minimum inhibitory concentration (MIC) in assay [15] worked out at 8 µM (≈ 14.4 µg/mL).
`CC(C)[C@H](N)C(=O)N[C@H](C(=O)N[C@@H](CCCCN)C(=O)N[C@@H](CS)C(=O)N[C@@H](CO)C(=O)N[C@@H](Cc1ccc(O)cc1)C(=O)N[C@@H](CCCN=C(N)N)C(=O)N[C@@H](CCC(N)=O)C(=O)NCC(=O)N[C@@H](CO)C(=O)N1CCC[C@H]1C(=O)N[C@@H](CC(=O)O)C(=O)N[C@@H](CO)C(=O)N[C@@H](CCCN=C(N)N)C(=O)O)C(C)C` [VVKCSYRQGSPDSR]: the minimum inhibitory concentration (MIC) in [3] was at least 126 µM; in assay [4], above 126 µM; in assay [5], at least 126 µM; in [2] it was above 126 µM.
